Assay results: US9364438B2, “Process for producing solid particles” (Takeda Pharmaceutical Company Limited, priority 2012, dated 2016)

Experiment: Microscopic observation of precipitated resatorvid crystals (poor solvent crystallization)
Assay type: physicochemical
Details: microscope
Experimental: Resatorvid (10 mg) was dissolved in methanol (0.5 mL) to prepare a methanol solution of resatorvid. The solution was added dropwise to water (5 mL) for injection with stirring at 600 rpm to allow precipitation of resatorvid crystal. The crystal was recovered, and vacuum dried at 50° C. for 24 hr. The obtained crystal was observed under a microscope.
In the same manner as in Comparative Example 1 except that water for injection containing nanobubbles produced under the above-mentioned conditions was used instead of water for injection, resatorvid crystal was obtained. The obtained crystal was observed under a microscope.
Resatorvid (10 mg) was dissolved in methanol (0.5 mL) to prepare a methanol solution of resatorvid. Polysorbate 80 (2 mg) was dissolved in water for injection (10 mL) to prepare aqueous polysorbate 80 solution. The aforementioned resatorvid solution (0.5 mL) was added dropwise to water (10 mL) for injection with stirring at 600 rpm to allow precipitation of resatorvid crystal. The crystal was recovered, and vacuum dried at 50° C. for 24 hr. The obtained crystal was observed under a microscope.
In the same manner as in Comparative Example 2 except that water for injection containing nanobubbles produced under the above-mentioned conditions was used instead of water for injection, resatorvid crystal was obtained. The obtained crystal was observed under a microscope.

Row | Structure (SMILES) | average maximum length of each crystal particle (poor solvent nanobubble water, compared with conventional water for injection (Comparative Example 1), FIG. 1 vs FIG. 2) | average maximum length of each crystal particle (poor solvent aqueous polysorbate 80 nanobubble solution, compared with conventional aqueous polysorbate 80 solution (Comparative Example 2))
1 | CCOC(=O)C1=CCCC[C@H]1S(=O)(=O)Nc1ccc(F)cc1Cl [Example 1, ethyl (6R)-6-[(2-chloro-4-fluoroanilino)sulfonyl]-1-cyclohexene-1-carboxylate] | smaller average maximum length | –
2 | CCOC(=O)C1=CCCC[C@H]1S(=O)(=O)Nc1ccc(F)cc1Cl [Example 2, ethyl (6R)-6-[(2-chloro-4-fluoroanilino)sulfonyl]-1-cyclohexene-1-carboxylate] | – | smaller average maximum length
